Read-outs that look alike come from different tables or passages of the source.
Legend:
SNAP-mGluR2-R57A = molecular target: T1, SNAP-mGluR2-R57A (Rattus norvegicus, UniProt P31421, R57A); test: GIRK activation assay, whole cell patch clamp, SNAP-mGluR2-R57A; type: cell-based
T1 construct: expressed in transfected cells; host or cells: HEK 293T
Method: (§1) Cells were cultured in DMEM with 5% FBS on poly-L-lysine-coated glass coverslips. DNA plasmids were transfected into cells using Lipofectamine 3000 (Thermo Fisher). […] For single-molecule pulldown (SiMPull) experiments, cells were transfected with 0.7 μg DNA of HA and SNAP-tagged receptor constructs, unless otherwise noted. For FRET experiments, cells were transfected with either SNAP-tagged constructs at 0.5–0.7 μg of DNA/well or SNAP and CLIP-tagged constructs at a ratio of 1:2 with 0.3 μg of SNAP DNA/well.
Whole-cell patch clamp recordings from single isolated cells were performed 24–36 hr after transfection in a high-potassium extracellular solution containing (in mM): 120 KCl, 29 NaCl, 1 MgCl2, 2 CaCl2 and 10 HEPES, pH 7.4. Cells were voltage clamped to −60 mV using an Axopatch 200B amplifier (Axon Instruments) and membrane currents were recorded. Glass pipettes of resistance between 3 and 8 MΩ were filled with intracellular solution containing (in mM): 140 KCl, 10 HEPES, 3 Na2ATP, 0.2 Na2GTP, 5 EGTA and 3 MgCl2, pH 7.4. Data were acquired with a 2 kHz acquisition rate and filtered with the amplifier 4-pole Bessel filter at 1 kHz. Drugs were prepared in extracellular solution and applied using a gravity-driven perfusion system. Data were analyzed with Clampfit (Molecular Devices) and Prism (GraphPad). Data for all conditions came from at least two separate transfections.

SNAP-mGluR2-TMD = molecular target: T2, SNAP-mGluR2-TMD (Rattus norvegicus, UniProt P31421); test: Inter-TMD FRET assay in living HEK 293T cells; type: cell-based; conditions: for EC50: normalized to saturating LY48; for inter-TMD FRET response to drug alone: drug applied alone, XA up to 50 µM
T2 construct: mGluR2-TMD (rat) starts at Q558; expressed in transfected cells; host or cells: HEK 293T
Text: We therefore sought to develop a FRET sensor that reports on activation-associated motions driven by allosteric drugs and hypothesized that an N-terminal fluorophore on the isolated TMD should report on any inter-TMD rearrangement while allowing the receptor to maintain G-protein coupling (Figure 3A). […] To test if LBD-independent inter-TMD rearrangement is a feature of other mGluRs, we asked if donor and acceptor conjugation to SNAP-mGluR5-TMD would allow for the detection a FRET response to a PAM.
as §1
Fluorophores were diluted in EX solution, which was also used to wash coverslips following labeling and prior to mounting on the microscope. After labeling, cells were mounted on an inverted microscope (Olympus IX73) and imaged with a 60x objective. […] Clusters of cells were analyzed together using ImageJ and FRET was calculated as FRET=(IAcceptor)/(IDonor +IAcceptor) where I is fluorescence intensity. No corrections were made for bleed-through between channels or the contribution of donor-donor or acceptor-acceptor dimers as analysis was limited to relative FRET changes between drug treatments rather than absolute FRET values. […] FRET changes calculated for dose–response curves were normalized to the response to saturating […] applied within the same recording and dose–response curves were obtained from multiple cell clusters and averaged from at least three separate experiments. Dose–response curves were fit using Prism (Graphpad). All drugs were purchased from Tocris, prepared in EX solution, and delivered with a gravity-driven perfusion system. For kinetics measurements a pressurized perfusion system (Automate Scientific) was used to produce a flow rate of 0.5 mL/s. Kinetic analysis was performed in Microsoft Excel. The time between 10% and 90% FRET increase or decrease was determined manually. For photo-bleaching/donor-recovery experiments, images were taken in donor and acceptor channels at baseline and again followed by a 1 min exposure to 640 nm laser illumination at maximum intensity. All experiments were performed at room temperature. All data were produced from at least two separate transfections for each condition.

[1] = Gramicidin-based fluorescence quench assay for changes of lipid bilayer properties (LUVs); type: physicochemical; conditions: 1 to 10 µM
Text: To further probe this, we used a fluorescence quench assay for drug-induced changes of lipid bilayer properties ([Ingólfsson and Andersen, 2010]) (Figure 6—figure supplement 3A; see Materials and methods), in which changes in gramicidin channel function is used as a reporter of membrane modification. […] The persistent BINA response is thus consistent with a model where BINA readily partitions into the plasma membrane lipid bilayer (and possibly other lipidic compartments).
The gramicidin-based fluorescence assay has been described previously ([Ingólfsson and Andersen, 2010]). In brief, large unilamellar vesicles (LUVs), loaded with intravesicular ANTS were prepared from DC22:1PC and gramicidin (weight ratio 1000:1, corresponding to a ~ 2000:1 molar ratio) using freeze-drying, extrusion and size-exclusion chromatography; the final lipid concentration was 4–5 mM; the suspension was stored in the dark at 12.5°C for a maximum of 7 days. […] Before use, the LUV-ANTS stock was diluted to 200–250 μM lipid with NaNO3 buffer (140 mM NaNO3, 10 mM HEPES, pH 7).
The NAMs and PAMs (dissolved in DMSO) or DMSO (as control) were added to a LUV-ANTS sample and equilibrated at 25°C in the dark for 10 min. before the mixture was loaded into a stopped-flow spectrofluorometer (Applied Photophysics SX.20, Leatherhead, UK) and mixed with either NaNO3 buffer or TlNO3 buffer; Tl^+ (thallous ion) is a gramicidin channel-permeant quencher of the ANTS fluorescence. Samples were excited at 352 nm and the fluorescence signal above 455 nm was recorded in the absence (four successive trials) or presence (nine successive trials) of the quencher. All the NAM and PAM derivatives fluoresce to varying degrees and addition of these drugs to LUVs in control experiments without gA or Tl^+ increased the fluorescence signal, and each signal was normalized to account for the compound's fluorescence. […] The quench rate (Rate), the rate of Tl^+ influx, was determined at 2 ms: Rate=β/τ0⋅(t/τ0)^β−1|2ms […]

[2] = SNAP-mGluR2-TMD labeled with donor and acceptor, mean ± s.e.m., read-out: inter-TMD FRET increase EC50

T1 sequence (P31421 19-872 R57A): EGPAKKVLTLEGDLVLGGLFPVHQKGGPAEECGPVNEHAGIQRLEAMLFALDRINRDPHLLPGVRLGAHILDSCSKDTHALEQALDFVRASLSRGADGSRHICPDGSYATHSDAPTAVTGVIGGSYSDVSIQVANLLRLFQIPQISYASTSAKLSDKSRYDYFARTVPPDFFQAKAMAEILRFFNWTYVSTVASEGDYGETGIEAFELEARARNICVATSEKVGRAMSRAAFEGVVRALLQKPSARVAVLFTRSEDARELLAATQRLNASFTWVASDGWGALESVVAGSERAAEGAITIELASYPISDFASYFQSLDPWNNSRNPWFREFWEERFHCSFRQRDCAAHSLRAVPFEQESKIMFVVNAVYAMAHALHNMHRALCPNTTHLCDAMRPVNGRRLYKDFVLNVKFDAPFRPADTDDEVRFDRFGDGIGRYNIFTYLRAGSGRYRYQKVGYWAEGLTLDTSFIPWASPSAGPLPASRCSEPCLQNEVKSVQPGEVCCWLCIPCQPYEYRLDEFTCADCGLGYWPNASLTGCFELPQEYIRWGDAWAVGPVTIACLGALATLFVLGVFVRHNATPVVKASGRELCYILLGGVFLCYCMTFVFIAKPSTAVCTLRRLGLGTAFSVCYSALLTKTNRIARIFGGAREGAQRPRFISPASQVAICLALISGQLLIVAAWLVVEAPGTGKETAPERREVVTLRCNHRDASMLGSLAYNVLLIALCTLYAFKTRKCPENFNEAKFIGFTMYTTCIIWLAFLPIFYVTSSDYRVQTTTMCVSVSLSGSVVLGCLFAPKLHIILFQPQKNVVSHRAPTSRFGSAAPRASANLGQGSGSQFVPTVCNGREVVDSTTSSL
T2 sequence (P31421 558-872 limits assumed): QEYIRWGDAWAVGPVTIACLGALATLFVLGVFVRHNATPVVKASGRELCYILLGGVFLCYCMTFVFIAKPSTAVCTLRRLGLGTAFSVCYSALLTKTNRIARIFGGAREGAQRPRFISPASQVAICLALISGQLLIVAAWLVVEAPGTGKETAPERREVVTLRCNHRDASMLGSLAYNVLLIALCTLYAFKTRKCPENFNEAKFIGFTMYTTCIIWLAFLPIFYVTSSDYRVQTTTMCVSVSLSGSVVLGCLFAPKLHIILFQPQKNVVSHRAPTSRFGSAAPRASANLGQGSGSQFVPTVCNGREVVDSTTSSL

| EC50 (SNAP-mGluR2-R57A; SNAP-mGluR2-R57A, normalized to saturating glutamate, mean ± s.e.m., read-out: GIRK activation EC50) | EC50 (SNAP-mGluR2-R57A; mGluR2-R57A, read-out: GIRK activation EC50 (approximate)) | maximal PAM-induced GIRK activation relative to glutamate (SNAP-mGluR2-R57A; mGluR2-R57A, relative to glutamate) | EC50 (SNAP-mGluR2-TMD; SNAP- and CLIP-mGluR2-TMD co-expressed, read-out: inter-TMD FRET increase EC50, co-expression of SNAP- and CLIP-mGluR2-TMD) | EC50 (SNAP-mGluR2-TMD; [2]) | EC50 (SNAP-mGluR2-TMD; co-expression of dominant negative Gα protein, read-out: inter-TMD FRET increase EC50 with dominant negative G protein) | inter-TMD FRET response to drug alone (SNAP-mGluR2-TMD) | inter-TMD FRET response onset (SNAP-mGluR2-TMD; saturating concentrations) | inter-TMD FRET response reversal (SNAP-mGluR2-TMD; saturating concentrations) | effect on LY48-induced inter-TMD FRET response (SNAP-mGluR2-TMD; NAM versus LY48) | effect on Ro 64-induced inter-TMD FRET increase (SNAP-mGluR2-TMD; applied after Ro 64) | changes in gramicidin channel function (membrane properties) [1] | inter-TMD FRET OFF kinetics (SNAP-mGluR2-TMD) | Compound | effect on BINA-induced inter-TMD FRET increase (SNAP-mGluR2-TMD; applied after BINA) |
| --- | --- | --- | --- | --- | --- | --- | --- | --- | --- | --- | --- | --- | --- | --- |
| 290 ± 80 nM | ~300 nM | ~ 70% | 900 ± 100 nM | 1200 ± 100 nM | 600 ± 40 nM | readily detectable FRET increase | 10 to 40 s | < 2 min | – | – | – | – | COc1ccccc1Oc1ccc(N(Cc2cccnc2)S(=O)(=O)CC(F)(F)F)cc1 [LY48] | – |
| – | – | – | – | – | – | minimal FRET changes | – | – | blocked | partially reverse | do not alter membrane properties | – | N#Cc1cc(C2=Nc3ccc(Br)cc3NC(=O)C2)ccn1 [MNI 137] | reversed the BINA-induced FRET increase back to baseline |

| Compound | EC50 (SNAP-mGluR2-R57A; SNAP-mGluR2-R57A, normalized to saturating glutamate, mean ± s.e.m., read-out: GIRK activation EC50) | EC50 (SNAP-mGluR2-R57A; mGluR2-R57A, read-out: GIRK activation EC50 (approximate)) | maximal PAM-induced GIRK activation relative to glutamate (SNAP-mGluR2-R57A; mGluR2-R57A, relative to glutamate) | EC50 (SNAP-mGluR2-TMD; SNAP- and CLIP-mGluR2-TMD co-expressed, read-out: inter-TMD FRET increase EC50, co-expression of SNAP- and CLIP-mGluR2-TMD) | EC50 (SNAP-mGluR2-TMD; [2]) | EC50 (SNAP-mGluR2-TMD; co-expression of dominant negative Gα protein, read-out: inter-TMD FRET increase EC50 with dominant negative G protein) | inter-TMD FRET response to drug alone (SNAP-mGluR2-TMD) | inter-TMD FRET response onset (SNAP-mGluR2-TMD; saturating concentrations) | inter-TMD FRET response reversal (SNAP-mGluR2-TMD; saturating concentrations) | effect on LY48-induced inter-TMD FRET response (SNAP-mGluR2-TMD; NAM versus LY48) | effect on Ro 64-induced inter-TMD FRET increase (SNAP-mGluR2-TMD; applied after Ro 64) | changes in gramicidin channel function (membrane properties) [1] | inter-TMD FRET OFF kinetics (SNAP-mGluR2-TMD) | effect on BINA-induced inter-TMD FRET increase (SNAP-mGluR2-TMD; applied after BINA) |
| --- | --- | --- | --- | --- | --- | --- | --- | --- | --- | --- | --- | --- | --- | --- |
| Clc1cccc(Cl)c1/C(=C/n1cncn1)OC1CCCCCC1 [Ro 64] | – | – | – | – | 2100 ± 200 nM | – | robust, dose-dependent inter-TMD FRET increases | – | – | – | – | do not alter membrane properties | very slow OFF kinetics | – |

— PMC6588349 (eLife, 2019)
